Experimental findings from the METLIN SMRT retention time set (Domingo-Almenara et al. 2019) are described below.

This data set in a line: gradient 5% acetonitrile 3 min, to 50% in 2 min, to 85% in 15 min, held 3 min, 100 µL/min. The note with it: column: Zorbax Extend-C18 2.1 x 50 mm; eluents: water / acetonitrile, 0.1% formic acid. In a few lines:
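Values are retention times taken from adduct peaks that software picked and an analyst inspected. The pure standards were run as mixtures of ~100 molecules on HPLC linked to a quadrupole time-of-flight mass spectrometer, in positive and negative ionization mode. A Zorbax Extend-C18 column (2.1 × 50 mm, 1.8 μm) was used at 100 μL/min with water and acetonitrile, each including 0.1% formic acid.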
Turning to `O=S(=O)(NCc1ccc2c(c1)OCO2)N1CCOCC1`, the RP-LC retention time worked out at 677 s.
In turn, `CSc1ccccc1NC(=O)C(=O)NN1CCN(C)CC1` came in with an RP-LC retention time of 559 s.
In turn, `CC1Oc2ccc(S(=O)(=O)N3CCC(C(=O)N(C)C4CCCCC4)CC3)cc2NC1=O` (stereo not drawn) displayed an RP-LC retention time of 858 s.
`CCc1nc2cc(-c3noc(-c4ccc(C)s4)n3)ccc2o1`: the RP-LC retention time worked out at 1200 s.
With `C=C1C(=O)C23CC[C@@H]4C(C)(C(=O)OC)CCCC4(C)[C@@H]2CCC1(O)C3` (stereo partly drawn) the figure was 902 s.
For `O=C([C@@H]1C[C@H](F)CN1C(=O)c1ccc(Cl)cc1)N1CCCCC1` the value was 724 s; for `Cn1c(C(=O)NCCCN2CCCCCC2)cc2c(-c3cccs3)nn(-c3ccccc3)c21`, 795 s.
With `O=C(O)C1CCCN(c2cc(-n3ccnc3)ncn2)C1` (stereo not drawn) the figure was 537 s; with `COc1cc(NC(=O)COc2cc(C(F)(F)F)c3c(C)nn(C)c3n2)cc(OC)c1`, 1030 s.
The compound `COc1ccc(-n2ncc3c(=O)n(Cc4nc(-c5ccc(Br)cc5)no4)cnc32)cc1` registered an RP-LC retention time of 1090 s.
Take `Cc1ccccc1OCc1ccc(-c2nc(C#N)c(NCCN(C)C)o2)o1`: the RP-LC retention time amounted to 707 s.
With `Cc1noc([C@H]2CCN(C3CCSCC3)C[C@H]2NC(=O)C2CC2)n1` the figure was 576 s; with `CCOc1ccc(NC(=O)Cn2c(=O)cc(-c3nc(C)no3)c3ccccc32)cc1`, 862 s; with `COc1cccc(S(=O)(=O)N2[C@H]3CC[C@@H]2c2cnc(C)nc2C3)c1`, 692 s.
With `CC1CCN(c2nn(CC(=O)NCCc3ccc(Cl)cc3)c(=O)c3ccccc23)CC1` the figure was 1190 s; with `COCCNC(=O)CN1C(=O)C2CCCCN2c2ccc(S(=O)(=O)N3CCCC3)cc21` (stereo not drawn), 728 s; with `O=C(NCCCN1CCOCC1)C1c2ccccc2C(=O)N(C2CCCC2)C1c1cccs1` (stereo not drawn), 646 s.
In the case of `Cc1ccc(Cn2cccc(C(=O)Nc3nc4c(C)cccc4s3)c2=O)cc1`, the RP-LC retention time was 1240 s.
With `COCCC(=O)Nc1cnc(-c2ccc(C(F)(F)F)cc2)nc1` the figure was 895 s.
With `O=c1c(=O)n(Cc2nc(-c3cccc(F)c3)no2)ccn1Cc1ccc(Cl)cc1` the figure was 930 s.
For `O=C(O)c1cn(-c2cccc(F)c2)nn1` the value was 652 s.
Take `CCC(CC)NS(=O)(=O)c1cc(-c2[nH]ncc2C(=O)N(C)C)oc1C`: the RP-LC retention time turned out to be 659 s.
`CCc1noc(-c2cc(=O)n(CC(=O)Nc3ccccc3OC)c3ccccc23)n1` returned an RP-LC retention time of 962 s.
Compound `CCN(CC)c1nc2cc(C(=O)OC)ccc2c(=O)n1-c1ccc(C)cc1` yielded an RP-LC retention time of 1210 s.
As to `CCc1ccc(CNC(=O)C2CCCN(c3nccnc3Oc3ccc(C)cc3)C2)cc1` (stereo not drawn), the RP-LC retention time was determined as 1150 s.
With `CC1Oc2ccc(-c3csc(NC(=O)CCc4ccccc4)n3)cc2NC1=O` (stereo not drawn) the figure was 1050 s; with `COc1ccc(-c2nc(C)cc(C)c2CNS(=O)(=O)c2ccccc2)cc1`, 639 s.
For `Cc1ccccc1-c1nc2ccccc2n1CC(N)=O` the value was 616 s; for `O=C(c1cccs1)N1CCN(c2ccc(=O)n(-c3cccc(Cl)c3)n2)CC1`, 814 s.
With `Cc1noc2nc(CCC(=O)N3CCc4ccccc43)nc(N3CCCCCC3)c12` the figure was 1060 s.
`Cc1ccc(Nc2c(-c3ccc(C)cc3)nc3ccc(Cl)cn23)cc1` showed an RP-LC retention time of 890 s.
`COc1cc2c(cc1CC=C(C)C)C(=O)C[C@@H](c1ccc(O)cc1)O2`: the RP-LC retention time was 1190 s.
For `COc1ccc(-c2csc3c(=O)n(CC(=O)N4CCCC4)cnc23)cc1` the value was 760 s; for `O=C(Nc1ccc(NC(=O)N2CCC(C(=O)NCC3CC3)CC2)cc1)NC1CCCCC1`, 733 s; for `CC1CCc2nc3ncn(CC(=O)Nc4cccc(C#N)c4)c(=O)c3cc2C1` (stereo not drawn), 738 s.
For `CCCn1cc(CCNC(=O)Nc2ccccc2C)c2cccnc21` the value was 717 s.
`CCc1ccc(CN2C(=O)CN(S(C)(=O)=O)CC2(C)C(=O)NCc2ccc(C)cc2)cc1` (stereo not drawn) gave an RP-LC retention time of 963 s.
With `COc1ccc(Cn2nnc3cc(C(=O)Nc4cc(C)on4)ccc32)cc1` the figure was 817 s; with `CCC(CC)C(=O)Nc1c(-c2ccc(F)cc2)nc2cc(C)ccn12`, 674 s.
`Cc1ccc(-n2c(SCc3nc(-c4ccc(F)cc4)no3)nc3cc4c(cc3c2=O)OCO4)cc1` registered an RP-LC retention time of 1220 s.
For `COC(=O)c1cnc(N2CCN(c3ccccn3)CC2)c2ccccc12` the value was 640 s; for `CCN1C(=O)C2CCCCN2c2ccc(C(=O)N3CCN(c4ccccc4)CC3)cc21` (stereo not drawn), 974 s.
With `O=C(CSc1nc(=O)[nH]c2c1CCCC2)N1CCCc2ccccc21` the figure was 729 s; with `Cc1ccc(C)c(CNC(=O)c2cc(-c3ccncc3)cn2C)c1`, 679 s.
For `COc1ccc(C(=O)NC2CCN(c3ccc(=O)[nH]n3)C2)c(OC)n1` (stereo not drawn), the RP-LC retention time was 660 s.
For `Cc1ccc(S(=O)(=O)N2CCC(n3cnc4c(C)cccc4c3=O)CC2)cc1F` the value was 1030 s; for `O=C(CN1CCN(C(=O)c2cnn3c(-c4ccc5c(c4)OCO5)ccnc23)CC1)N1CCCCC1`, 611 s.
For the compound `Cc1ccc(NC(=O)C2CCN(S(=O)(=O)c3ccc4c(c3)sc(=O)n4C(C)C)CC2)cc1C`, the RP-LC retention time was 953 s.
In turn, `COc1ccc(NC(=O)Cn2c(C)cc(-c3nnc(C4CCC4)o3)c2C)cc1OC` yielded an RP-LC retention time of 796 s.
With `Cc1cccc(NC(=O)C2CCN(S(C)(=O)=O)c3ccccc3O2)c1` (stereo not drawn) the figure was 895 s; with `COc1cccc(-c2nc(-c3ccc(S(=O)(=O)N4CCCC4)cc3)no2)c1`, 1180 s.
For `CCn1c(=O)c2ccccc2n(Cc2nc(-c3ccc(C)c(C)c3)no2)c1=O` the value was 1100 s; for `COc1ccc(S(=O)(=O)Nc2cccc(-c3cn4cccc(C)c4n3)c2)cc1OC`, 634 s; for `Cc1cccc(NC(=O)N2CCC(C)(C(=O)NCc3ccc(F)cc3)CC2)c1C`, 834 s.
For `O=C(NCCN1CCCC1)c1cc2n(n1)CCCN(Cc1ccc(Cl)cc1)C2=O` the value was 627 s; for `CCc1ccc(-n2ncc3c(=O)n(Cc4nc(-c5cc(OC)c(OC)c(OC)c5)no4)cnc32)cc1`, 1080 s; for `CCN1C(=O)c2cc(C(=O)Nc3ccc(F)cc3)nn2CC1(C)C(=O)NC1CCCC1` (stereo not drawn), 813 s.
The compound `COCCCNC(=O)CCc1c(-c2ccc(Cl)cc2)nc2ccccn12` came in with an RP-LC retention time of 607 s.
